Reference: paper PMC3573960 (Molecular Neurodegeneration, 2012)

Key:
Tg2576 mice [1] = assay: Chronic treatment of Tg2576 mice, sequentially extracted brain Aβ by ELISA; format: in vivo, mouse; conditions: 50 weeks
From the text: Male Tg2576 and WT mice were both derived from crosses of male Tg2576 mice and female B6SJLF1 mice (Taconic) and were singly housed upon arrival. […] Some animals were euthanized as described above. For histological studies, a subset of mice were euthanized by CO2 asphyxiation and transcardially perfused with cold 0.9% NaCl. […] The left cerebral hemisphere was cut into 2 pieces, weighed, and frozen.

COX-2 = target: T1, COX-2 (Homo sapiens, UniProt P35354); assay: COX-2 enzyme assay (Cerep); format: biochemical; conditions: at 30 μM, human recombinant, arachidonic acid 2 μM
T1 construct: purchased Cerep (Redmond, WA) 0727; host or cells: Sf9
T1 sequence (P35354 18-604): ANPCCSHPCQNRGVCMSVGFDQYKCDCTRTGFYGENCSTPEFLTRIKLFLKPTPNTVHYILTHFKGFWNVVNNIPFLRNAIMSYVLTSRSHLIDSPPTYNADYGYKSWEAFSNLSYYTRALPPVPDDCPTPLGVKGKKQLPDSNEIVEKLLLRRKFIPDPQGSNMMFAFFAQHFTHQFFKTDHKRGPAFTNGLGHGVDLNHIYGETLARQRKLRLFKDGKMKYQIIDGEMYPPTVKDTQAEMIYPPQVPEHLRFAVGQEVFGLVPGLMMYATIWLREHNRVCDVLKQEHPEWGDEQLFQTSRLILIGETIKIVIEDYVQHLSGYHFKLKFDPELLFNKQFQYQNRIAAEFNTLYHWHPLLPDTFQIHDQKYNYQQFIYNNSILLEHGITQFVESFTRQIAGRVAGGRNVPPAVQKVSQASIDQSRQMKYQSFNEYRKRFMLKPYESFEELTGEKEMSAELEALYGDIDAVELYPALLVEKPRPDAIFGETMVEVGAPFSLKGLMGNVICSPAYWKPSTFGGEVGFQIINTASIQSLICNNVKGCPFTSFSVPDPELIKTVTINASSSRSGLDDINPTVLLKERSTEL
Protocol: COX-1 and COX-2 enzyme assays were performed by Cerep (Redmond, WA, Catalog # 0726 and 0727). Briefly, the assays used human recombinant Sf9 cells and arachidonic acid (4 μM for COX-1 and 2 μM for COX-2) as the substrate. Production of PGE2 was detected by enzyme immunoassay.

γ-secretase (NotchΔE) = assay: NICD production (S3 cleavage of NotchΔE) in transfected HEK293 cells; conditions: HEK293 cells expressing NotchΔE, 20 h, up to 30 μM
Protocol: HEK293 cells (700,000 cells per assay condition) were transiently transfected with a NotchΔE, myc-tagged construct to produce a truncated Notch1 substrate, which is constitutively cleaved by γ-secretase (S3 cleavage) [62]. Control transfections were performed with an empty vector. […] The amounts of NICD and total Notch were quantified and NICD was expressed as a percentage of total Notch. The DMSO control condition was set at 100%. Cell viability was determined using the CellTiter-Blue® Cell Viability Assay (Promega).

Tg2576 mice [2] = assay: Tolerability in chronic treatment study (body weight, organs, survival); format: in vivo, mouse
Protocol: (§1) Male Tg2576 and WT mice were both derived from crosses of male Tg2576 mice and female B6SJLF1 mice (Taconic) and were singly housed upon arrival. […] Some animals were euthanized as described above. For histological studies, a subset of mice were euthanized by CO2 asphyxiation and transcardially perfused with cold 0.9% NaCl. The right hemispheres were immersion fixed in fresh 4% paraformaldehyde in 0.1 M phosphate buffer, pH 7.4 for 1 h, transferred to a 15% sucrose cryoprotectant for 24 h at room temperature, and on the next day, frozen in isopentane chilled by dry ice for 1 min. The left cerebral hemisphere was cut into 2 pieces, weighed, and frozen.

Measured LogD = format: physicochemical
[3] = MTS cytotoxicity assay in H4-APP751 cells; conditions: human
Protocol: Cytotoxicity was evaluated using CellTiter 96® AQueous One Solution Cell Proliferation Assay (MTS Assay, Promega, Madison, WI) according to the manufacturer’s protocol.

Tg2576 mice [4] = assay: Western blot of APP species and total Aβ in Tg2576 mouse brain; format: in vivo; conditions: 50 weeks
Protocol: For determination of APP α- and β-CTFs in Tg2576 mouse brain, hemisphere samples were thawed in ice-cold homogenization buffer (150 mg of tissue/mL, 50 mM Tris and 150 mM NaCl, pH 7.4) with protease inhibitor cocktail (Mini Complete™, Roche Applied Science, Penzberg, Germany). Homogenized samples were spun at 435,000 g for 50 min at 4°C. The supernatant was discarded and the pellet resuspended in the same volume of homogenization buffer containing 0.5% Triton®-X 100, 1% deoxycholate, and 3% SDS. The pellets were triturated with a pipette until resuspended and incubated on a rotator for 1 h at 4°C. The samples were then centrifuged at 435,000 g for 50 min at 4°C and the detergent-soluble supernatant was collected. Protein concentration for membrane (detergent soluble) fraction was determined using the BCA method (Pierce, Rockford, IL). Thirty micrograms of total protein were separated on a Tricine 10-20% gel (Invitrogen) and transferred to a nitrocellulose membrane. Blots were probed with an anti-APP-CTF antibody (Sigma-Aldrich) or anti-Aβ antibody (clone 6E10) followed by incubation with IRDye secondary antibodies (Li-Cor Biosciences).
as §1

[5] = MTS cytotoxicity assay in rat primary neocortical cultures; format: cell-based; conditions: CD, primary neocortical cultures from E17 rat embryos
Protocol: Primary cultures were established from the neocortex of E17 rat embryos obtained from timed pregnant CD rats (Charles River Laboratories, Wilmington, MA). Following tissue dissection and trituration, the cultures were suspended in Neurobasal™ medium (Invitrogen) supplemented with 10% horse serum (Sigma-Aldrich) and 520 μM L-glutamine. Cells were plated at 50,000 cells/well in Costar 96-well poly-D-lysine-coated plates. Following incubation at 37°C and 5% CO2 for 4–5 h, the plating medium was exchanged with Neurobasal® medium with 2% B-27® supplement (Invitrogen), 520 μM of L-glutamine, and 1% penicillin-streptomycin. […] Cultures were incubated with compound for 24 h for analysis of Aβ peptides by sandwich ELISA and cytotoxicity by MTS assay.

O=C(O)[C@H](CC1CCC1)c1cc(Cl)c(OCC(F)(F)F)c(-c2ccc(C(F)(F)F)cc2)c1 [EVP-0015962, (R)-2-(5-chloro-6-(2,2,2-trifluoroethoxy)-4’-(trifluoromethyl)biphenyl-3-yl)-3-cyclobutylpropanoic acid]
Aβ38 in the TBS soluble fraction (Tg2576 mice [1]; 20 mg/kg/day): did not produce a significant increase | percent reduction in Aβ42 in the TBS soluble fraction (Tg2576 mice [1]; 20 mg/kg/day): 53% | reduction in AβTotal in the formic acid extractable fraction (Tg2576 mice [1]; 20 mg/kg/day): 49% | reduction in formic acid extractable Aβ42 (Tg2576 mice [1]; 20 mg/kg/day): 53% | age-related increase in soluble and insoluble Aβ42 (Tg2576 mice [1]; 60 mg/kg/day): prevented the dramatic increase | increase in Aβ38 in the TBS soluble fraction (Tg2576 mice [1]; 60 mg/kg/day): 78% | percent reduction in Aβ42 in the TBS soluble fraction (Tg2576 mice [1]; 60 mg/kg/day): 89% | reduction in AβTotal in the formic acid extractable fraction (Tg2576 mice [1]; 60 mg/kg/day): 64% | reduction in formic acid extractable Aβ42 (Tg2576 mice [1]; 60 mg/kg/day): 86% | Aβ38 in the formic acid extractable fraction (Tg2576 mice [1]; 20 or 60 mg/kg/day): not significantly changed | AβTotal in the TBS soluble fraction (Tg2576 mice [1]; 20 or 60 mg/kg/day): unchanged | age-related increase in Aβ42 (Tg2576 mice [1]; lower dose (20 mg/kg/day)): partially effective | percent inhibition for COX-2 (COX-2): 56% | levels of NICD produced (γ-secretase (NotchΔE)): did not affect | mortality (percent of group lost) (Tg2576 mice [2]; Tg2576 mice, 60 mg/kg/day, 50 weeks): 25% | body weight among the treatment groups (Tg2576 mice [2]; Tg2576 mice, 20 or 60 mg/kg/day, 50 weeks): no significant differences | effects on intestinal goblet cells or any other organ system examined (Tg2576 mice [2]; satellite animals, up to 60 mg/kg/day, 11 weeks): no evidence of effects | logD (Measured LogD): 3.88 | IC50 [3]: 5.56 ± 0.51 µM | reduction in total Aβ by Western blot vs control diet (Tg2576 mice [4]; 20 mg/kg/day): 42% | reduction in total Aβ by Western blot vs control diet (Tg2576 mice [4]; 60 mg/kg/day): 81% | levels of full length APP, β-CTF, and α-CTF in brain (Tg2576 mice [4]; 20 or 60 mg/kg/day): no increases | IC50 at 24 h [5]: > 30 µM
